Results published in US6303591A, “21-hydroxy-6,19-oxidoprogesterone (21OH-6OP) and its use as medicament for treating excess of glucocorticoids” (Applied Research Systems ARS Holding NV, priority 1997, dated 2001).
“Also recorded” adds a separate entry of the source.

Key:
[1] = target: T1, uterus PR (progesterone receptor) (Rattus norvegicus, UniProt Q63449); test: (^3 H)-P4 binding to uterus cytosols (PR); details: uterus cytosol, 12 h at 0° C., 1 μM cortisol
T1 sequence (Q63449 1-923): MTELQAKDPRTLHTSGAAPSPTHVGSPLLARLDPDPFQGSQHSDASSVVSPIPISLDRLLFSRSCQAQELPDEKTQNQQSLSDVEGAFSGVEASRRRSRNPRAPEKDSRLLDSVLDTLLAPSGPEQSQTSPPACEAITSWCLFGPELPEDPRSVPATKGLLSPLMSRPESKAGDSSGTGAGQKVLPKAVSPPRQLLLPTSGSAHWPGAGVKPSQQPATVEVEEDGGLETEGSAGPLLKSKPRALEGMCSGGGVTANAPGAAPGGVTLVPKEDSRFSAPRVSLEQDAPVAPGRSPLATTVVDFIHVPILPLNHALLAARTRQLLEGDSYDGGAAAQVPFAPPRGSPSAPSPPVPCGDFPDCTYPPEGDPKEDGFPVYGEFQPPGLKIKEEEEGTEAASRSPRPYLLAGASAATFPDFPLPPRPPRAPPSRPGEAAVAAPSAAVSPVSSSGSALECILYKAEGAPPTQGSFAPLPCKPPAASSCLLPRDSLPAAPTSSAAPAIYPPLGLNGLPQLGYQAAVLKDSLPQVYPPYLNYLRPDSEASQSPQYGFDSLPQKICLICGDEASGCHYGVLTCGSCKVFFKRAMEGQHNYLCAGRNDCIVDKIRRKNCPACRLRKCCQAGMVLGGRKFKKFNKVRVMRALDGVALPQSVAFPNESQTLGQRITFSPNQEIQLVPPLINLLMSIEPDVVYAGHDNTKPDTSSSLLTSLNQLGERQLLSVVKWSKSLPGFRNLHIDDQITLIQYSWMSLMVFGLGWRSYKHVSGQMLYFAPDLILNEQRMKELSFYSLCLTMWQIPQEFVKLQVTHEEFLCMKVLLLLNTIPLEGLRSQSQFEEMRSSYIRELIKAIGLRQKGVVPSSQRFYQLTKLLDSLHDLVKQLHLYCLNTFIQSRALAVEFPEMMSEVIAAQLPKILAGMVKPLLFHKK
Method: (§1) Binding Assay: Adrenalectomized male Sprague-Dawley rats were bled to death by heart puncture. Cold 0.9% NaCI was injected profusely through the aorta until organs were completely blanched. Thymuses were used as a source of GR and kidneys as a source of MR. Homogenization and incubation conditions were performed as previously described, (14) and (15), respectively. Briefly, homogenates performed in cold TEGM buffer at pH 7.4 (0.1 M Tris-HCl, 10 mM EDTA, 10 mM α-mercaptoethanol, 20 mM Na2 MoO4, 25% glycerol, 0.1 mM PMSF, 2.0 TIU/ml aprotinin and 1 mg% Leupeptin) were centrifuged at 37,000 rev. for 30 min at 0° C. Supernatants from this centrifugation are referred to as "cytosol". […] (^3 H)-P4 binding to uterus PR was assayed on immature female rats according to Jordan et al (16).
Relative binding affinity (RBA) for partially purified CBG was determined by steroid competition for (^3 H)-B binding as described previously (14).

[2] = target: T2, GR from rat thymus (thymus cytosol) (Rattus norvegicus, UniProt P06536); test: displacement of (^3 H)-B binding to GR, rat thymus cytosol
T2 construct: Thymuses were used as a source of GR; from tissue; host or cells: thymus cytosol, adrenalectomized male Sprague-Dawley rats
T2 sequence (P06536 1-795): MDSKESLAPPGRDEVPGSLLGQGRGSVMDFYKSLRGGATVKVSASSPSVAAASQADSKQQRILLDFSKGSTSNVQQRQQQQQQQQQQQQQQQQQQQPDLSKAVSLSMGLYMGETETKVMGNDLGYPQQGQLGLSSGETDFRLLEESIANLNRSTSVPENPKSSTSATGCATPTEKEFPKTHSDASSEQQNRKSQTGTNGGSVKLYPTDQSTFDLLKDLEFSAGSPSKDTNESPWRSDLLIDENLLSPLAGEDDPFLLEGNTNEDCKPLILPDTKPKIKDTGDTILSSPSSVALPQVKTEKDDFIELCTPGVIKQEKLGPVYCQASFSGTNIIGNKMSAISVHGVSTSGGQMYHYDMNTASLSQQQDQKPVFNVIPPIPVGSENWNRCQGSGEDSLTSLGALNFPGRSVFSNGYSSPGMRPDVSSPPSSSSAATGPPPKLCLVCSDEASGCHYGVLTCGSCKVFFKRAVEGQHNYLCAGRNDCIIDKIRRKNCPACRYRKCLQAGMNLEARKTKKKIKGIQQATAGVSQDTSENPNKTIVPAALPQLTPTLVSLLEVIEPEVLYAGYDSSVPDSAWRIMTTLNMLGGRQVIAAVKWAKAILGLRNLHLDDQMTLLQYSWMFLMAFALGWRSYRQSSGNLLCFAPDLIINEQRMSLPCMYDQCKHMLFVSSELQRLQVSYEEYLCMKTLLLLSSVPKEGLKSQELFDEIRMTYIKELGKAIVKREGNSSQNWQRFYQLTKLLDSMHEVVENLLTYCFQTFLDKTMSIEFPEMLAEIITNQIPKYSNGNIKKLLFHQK
Method: as §1
The displacement curve of 6,19-oxidoprogesterone is included for comparative purposes.

C[C@]12CC[C@H]3[C@@H](C[C@H]4OC[C@@]35CCC(=O)C=C45)[C@@H]1CC[C@@H]2C(=O)CO [21OH-6OP, 21-hydroxy-6,19-oxidoprogesterone]
displacement of (^3 H)-P4 from uterus receptors / cross-reaction with PR [1]: unable to cross-react with uterus-PR or kidney-MR; also recorded: does not cross-react with progesterone receptor; also recorded: as weakly as the negative control 17β-estradiol; also recorded: no ability to interact with MR nor PR; also recorded: does not cross-react with PR
increase of binding to GR by 21-hydroxyl, relative to 6OP ([2]; 21OH-6OP vs 6OP): over 40 times
saturation predicted according to mass action ([2]; FIG. 2 a, predicted): 95%
tracer displacement ([2]; FIG. 2 a, 720 min): 75%
Kd ([2]; rat thymus cytosol, 5 nM (^3 H)-B, 12 h at 0° C., read-out: RBA for GR (Kd)): 0.125 µM
